Source: ChEMBL document CHEMBL3046358, “Multiple Pro-197 substitutions in the acetolactate synthase of rigid ryegrass (Lolium rigidum) and their impact on chlorsulfuron activity and plant growth” (Crop Prot, 2012)

Tests used:
[1] = biological target: T1, Acetolactate synthase (Lolium rigidum) (UniProt A7XBP7); assay: Resistance index, ratio of I50 for acetolactate synthase Pro-197/Leu-197 mutant in Lolium rigidum accession A07 leaves extracts to I50 for acetolactate synthase in Lolium rigidum accession A01 leaves extracts
T1 sequence (whole entry): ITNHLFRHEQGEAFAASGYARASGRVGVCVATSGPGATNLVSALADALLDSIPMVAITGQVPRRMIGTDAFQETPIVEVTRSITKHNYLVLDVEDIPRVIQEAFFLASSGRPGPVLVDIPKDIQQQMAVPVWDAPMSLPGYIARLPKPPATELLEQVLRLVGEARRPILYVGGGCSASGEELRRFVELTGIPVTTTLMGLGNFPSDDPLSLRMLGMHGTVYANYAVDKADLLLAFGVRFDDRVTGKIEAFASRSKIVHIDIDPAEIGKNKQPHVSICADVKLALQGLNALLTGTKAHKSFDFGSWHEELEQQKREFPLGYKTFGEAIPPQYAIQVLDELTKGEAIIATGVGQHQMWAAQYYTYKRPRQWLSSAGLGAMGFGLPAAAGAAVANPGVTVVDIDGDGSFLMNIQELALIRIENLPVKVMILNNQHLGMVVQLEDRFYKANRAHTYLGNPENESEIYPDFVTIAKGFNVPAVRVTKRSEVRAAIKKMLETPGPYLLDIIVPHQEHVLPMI

Lolium rigidum [2] = assay: Herbicidal activity against Lolium rigidum accession A06 assessed as fresh weight reduction applied at 1 times pre-emergence recommended rate applied in pots where terbufos had been incorporated into the soil relative to untreated control; format: functional; set-up: scale not given: the % may be the effect or the level left
Lolium rigidum [3] = assay: Herbicidal activity against Lolium rigidum accession A10 assessed as fresh weight reduction applied at 1 times pre-emergence recommended rate relative to untreated control; format: functional; set-up: scale not given: the % may be the effect or the level left
Lolium rigidum [4] = assay: Herbicidal activity against Lolium rigidum accession A10 assessed as emergence rate applied at 4 times pre-emergence recommended rate relative to untreated control; format: functional
[5] = biological target: T1, Acetolactate synthase (Lolium rigidum); assay: Resistance index, ratio of I50 for acetolactate synthase Ser-197/Ser-197 mutant in Lolium rigidum accession A21 leaves extracts to I50 for acetolactate synthase in Lolium rigidum accession A01 leaves extracts
Lolium rigidum [6] = assay: Herbicidal activity against Lolium rigidum accession A02 assessed as emergence rate applied at 1 times pre-emergence recommended rate applied in pots where terbufos had been incorporated into the soil relative to untreated control; format: functional
Lolium rigidum [7] = assay: Herbicidal activity against Lolium rigidum accession A03 assessed as emergence rate applied at 1 times pre-emergence recommended rate relative to untreated control; format: functional
Lolium rigidum [8] = assay: Herbicidal activity against Lolium rigidum accession A13 assessed as emergence rate applied at 4 times pre-emergence recommended rate relative to untreated control; format: functional
Lolium rigidum [9] = assay: Herbicidal activity against Lolium rigidum accession A06 assessed as emergence rate applied at 1 times pre-emergence recommended rate relative to untreated control; format: functional
Lolium rigidum [10] = assay: Herbicidal activity against Lolium rigidum accession A12 assessed as emergence rate applied at 4 times pre-emergence recommended rate relative to untreated control; format: functional
Acetolactate synthase [11] = biological target: T2, Acetolactate synthase (Lolium rigidum, UniProt A7XBP7); assay: Inhibition of acetolactate synthase Ala-197/Ala-197 mutant in Lolium rigidum accession A20 leaves extracts by acetolactate production assay; conditions: read-out: I50
Lolium rigidum [12] = assay: Herbicidal activity against Lolium rigidum accession A06 assessed as emergence rate applied at 4 times pre-emergence recommended rate relative to untreated control; format: functional
Lolium rigidum [13] = assay: Herbicidal activity against Lolium rigidum accession A15 assessed as fresh weight reduction applied at 1 times pre-emergence recommended rate relative to untreated control; format: functional; set-up: scale not given: the % may be the effect or the level left
Lolium rigidum [14] = assay: Herbicidal activity against Lolium rigidum accession A02 assessed as emergence rate applied at 1 times pre-emergence recommended rate relative to untreated control; format: functional
Lolium rigidum [15] = assay: Herbicidal activity against Lolium rigidum accession A09 assessed as fresh weight reduction applied at 1 times pre-emergence recommended rate relative to untreated control; format: functional; set-up: scale not given: the % may be the effect or the level left
Lolium rigidum [16] = assay: Herbicidal activity against Lolium rigidum accession A13 assessed as emergence rate applied at 1 times pre-emergence recommended rate relative to untreated control; format: functional
Lolium rigidum [17] = assay: Herbicidal activity against Lolium rigidum accession A09 assessed as emergence rate applied at 1 times pre-emergence recommended rate relative to untreated control; format: functional
Lolium rigidum [18] = assay: Herbicidal activity against Lolium rigidum accession A13 assessed as emergence rate applied at 1 times pre-emergence recommended rate applied in pots where terbufos had been incorporated into the soil relative to untreated control; format: functional
Lolium rigidum [19] = assay: Herbicidal activity against Lolium rigidum accession A01 assessed as emergence rate applied at 1 times pre-emergence recommended rate applied in pots where terbufos had been incorporated into the soil relative to untreated control; format: functional
Acetolactate synthase [20] = biological target: T2, Acetolactate synthase; assay: Inhibition of acetolactate synthase Ser-197/Ser-197 mutant in Lolium rigidum accession A21 leaves extracts by acetolactate production assay; conditions: read-out: I50
Lolium rigidum [21] = assay: Herbicidal activity against Lolium rigidum accession A11 assessed as fresh weight reduction applied at 1 times pre-emergence recommended rate relative to untreated control; format: functional; set-up: scale not given: the % may be the effect or the level left
Acetolactate synthase [22] = biological target: T2, Acetolactate synthase; assay: Inhibition of acetolactate synthase Pro-197/Pro-197 mutant in Lolium rigidum accession A11 leaves extracts by acetolactate production assay; conditions: read-out: I50
Lolium rigidum [23] = assay: Herbicidal activity against Lolium rigidum accession A14 assessed as fresh weight reduction applied at 1 times pre-emergence recommended rate relative to untreated control; format: functional; set-up: scale not given: the % may be the effect or the level left
Lolium rigidum [24] = assay: Herbicidal activity against Lolium rigidum accession A03 assessed as fresh weight reduction applied at 1 times pre-emergence recommended rate applied in pots where terbufos had been incorporated into the soil relative to untreated control; format: functional; set-up: scale not given: the % may be the effect or the level left
Lolium rigidum [25] = assay: Herbicidal activity against Lolium rigidum accession A05 assessed as emergence rate applied at 1 times pre-emergence recommended rate relative to untreated control; format: functional
Lolium rigidum [26] = assay: Herbicidal activity against Lolium rigidum accession A15 assessed as emergence rate applied at 1 times pre-emergence recommended rate applied in pots where terbufos had been incorporated into the soil relative to untreated control; format: functional
Acetolactate synthase [27] = biological target: T2, Acetolactate synthase; assay: Inhibition of acetolactate synthase Ala-197/Ala-197 mutant in Lolium rigidum accession A19 leaves extracts by acetolactate production assay; conditions: read-out: I50
Lolium rigidum [28] = assay: Herbicidal activity against Lolium rigidum accession A11 assessed as fresh weight reduction applied at 1 times pre-emergence recommended rate applied in pots where terbufos had been incorporated into the soil relative to untreated control; format: functional; set-up: scale not given: the % may be the effect or the level left
[29] = biological target: T1, Acetolactate synthase (Lolium rigidum); assay: Resistance index, ratio of I50 for acetolactate synthase Ala-197/Ala-197 mutant in Lolium rigidum accession A16 leaves extracts to I50 for acetolactate synthase in Lolium rigidum accession A01 leaves extracts
Acetolactate synthase [30] = biological target: Acetolactate synthase (Lolium rigidum, UniProt A7XBP7, P197L); assay: Inhibition of acetolactate synthase Pro-197/Leu-197 mutant in Lolium rigidum accession A07 leaves extracts by acetolactate production assay; conditions: read-out: I50
Lolium rigidum [31] = assay: Herbicidal activity against Lolium rigidum accession A04 assessed as emergence rate applied at 4 times pre-emergence recommended rate relative to untreated control; format: functional
Lolium rigidum [32] = assay: Herbicidal activity against Lolium rigidum accession A12 assessed as emergence rate applied at 1 times pre-emergence recommended rate applied in pots where terbufos had been incorporated into the soil relative to untreated control; format: functional
Lolium rigidum [33] = assay: Herbicidal activity against Lolium rigidum accession A04 assessed as fresh weight reduction applied at 1 times pre-emergence recommended rate applied in pots where terbufos had been incorporated into the soil relative to untreated control; format: functional; set-up: scale not given: the % may be the effect or the level left
Lolium rigidum [34] = assay: Herbicidal activity against Lolium rigidum accession A03 assessed as emergence rate applied at 1 times pre-emergence recommended rate applied in pots where terbufos had been incorporated into the soil relative to untreated control; format: functional

In the case of `COc1nc(C)nc(NC(=O)NS(=O)(=O)c2ccccc2Cl)n1` [CHLORSULFURON], the Ratio [1] is reported as 61, the Activity (Lolium rigidum [2]) is reported as 0% and the Activity (Lolium rigidum [3]) is reported as 76%. For the same molecule, the Activity (Lolium rigidum [4]) was 0%, the Ratio [5] was 53 and the Activity (Lolium rigidum [6]) was 0%. The Activity (Lolium rigidum [7]) was 1%, the Activity (Lolium rigidum [8]) was 1% and the Activity (Lolium rigidum [9]) was 89%. For the same molecule, the Activity (Lolium rigidum [10]) was 1%, the IC50 (Acetolactate synthase [11]) was 1.09 µM and the Activity (Lolium rigidum [12]) was 84%. It also gave an Activity (Lolium rigidum [13]) of 94%, an Activity (Lolium rigidum [14]) of 2% and an Activity (Lolium rigidum [15]) of 78%. The Activity (Lolium rigidum [16]) was 1%, the Activity (Lolium rigidum [17]) was 44% and the Activity (Lolium rigidum [18]) was 0%. It also gave an Activity (Lolium rigidum [19]) of 1%, an IC50 (Acetolactate synthase [20]) of 1.58 µM and an Activity (Lolium rigidum [21]) of 54%. For the same molecule, the IC50 (Acetolactate synthase [22]) was 0.03 µM, the Activity (Lolium rigidum [23]) was 94% and the Activity (Lolium rigidum [24]) was 99%. It also gave an Activity (Lolium rigidum [25]) of 97%, an Activity (Lolium rigidum [26]) of 0% and an IC50 (Acetolactate synthase [27]) of 18.6 µM. The Activity (Lolium rigidum [28]) was 97%, the Ratio [29] was 257 and the IC50 (Acetolactate synthase [30]) was 1.82 µM. It also gave an Activity (Lolium rigidum [31]) of 1%, an Activity (Lolium rigidum [32]) of 0% and an Activity (Lolium rigidum [33]) of 96%. For the same molecule, the Activity (Lolium rigidum [34]) was 1%.
